Experimental data as given in US12435071B2, “Bryostatin compounds and methods of preparing the same” (priority 2016, dated 2025).
Where two headings read alike, the source gives them in different places.

What was measured:
[1] = molecular target: T1, PKC beta-I (Homo sapiens, UniProt P05771); assay: PKC binding assay, competition with 3H-PDBu (glass-fiber filtration)
T1 construct: purchased Invitrogen
Experimental: (§1) This procedure entails a glass-fiber filtration method to determine bound radioligand. PKC-beta-I and PKC-delta were selected for preliminary evaluation. The former is a member of the conventional PKC subfamily while the latter is a member of the novel PKC sub-family (A. C. Newton. Protein Kinase C: Structure, Function, and Regulation. J. Biol. Chem. 270, 28495-28498 (1995)).
(§2) To a 50 mL polypropylene tube was added Tris-HCl (pH 7.4, 1 M, 1 mL), KCl (1 M, 2 mL), CaCl2 (0.1 M, 30 μL), and bovine serum albumin (40 mg, Sigma-Aldrich). This mixture was diluted to 20 mL with deionized H2O and mixed gently. The buffer was stored on ice until use.
(§3) For every two assays, 3.5 mg phosphatidylserine (Avanti Polar Lipids, porcine, 25 mg/mL CHCl3 solution) was concentrated by removing chloroform under a stream of nitrogen followed by reduced pressure. The solid P S was suspended as vesicles in freshly prepared PKC binding assay buffer (3.5 mL) by sonicating six times for 30 sec, with a 30 sec rest between sonications (Branson Sonifier 250, power=2, 50% duty cycle). The resulting milky cloudy mixture (1 mg/mL) was stored on ice until use.
(§4) Assay PKC was prepared by dissolving a 4 μg aliquot of the indicated recombinant human PKC isoform (Invitrogen) into 11.6 mL of PKC binding assay buffer (this amount is sufficient for two assays). The diluted PKC was stored on ice for immediate use.
(§5) The resulting 500 nM stock solution was further diluted with DMSO to 30 nM.
(§6) Compound dilutions were prepared by serially diluting from a chosen “high” concentration by factors of 3 or 4. For each analog compound, seven concentrations were used to define the inhibition curve (i.e. for exocyclic alkene 34, the analog concentrations used were 3000 nM, 750 nM, 188 nM, 46.9 nM, 11.7 nM, 2.93 nM, and 0.73 nM).
(§7) The resulting solution was vortexed to mix and stored on ice.
(§8) • Glass-fiber filters (Whatman GF/B) were prepared by soaking them in a solution of aqueous polyethyleneimine (10% by vol, 18 mL) in deionized water (600 mL) for >1 h. • 500 mL “rinsing buffer” of 20 mM Tris, pH 7.4 was cooled on ice for the duration of the incubation period and for the remainder of the assay.
(§9) Triplicate data points were obtained for each analog concentration. […]
(§10) The resulting filters had circular perforations for each data point, which were removed with forceps and placed in a scintillation vial. Scintillation vials were filled with Bio-Safe II scintillation fluid (5 mL) and measured for radioactivity using a Beckman LS 6000SC scintillation counter. […] The data were plotted—cpm vs. log(concentration)—using Prism® by GraphPad Software and an IC50 was determined using that program's built-in one-site competition least squares regression function.

[2] = molecular target: T2, PKC delta (Homo sapiens, UniProt Q05655); assay: as above; conditions: recombinant human PKC isoform, parentheses = 95% confidence interval
T2 construct: purchased Invitrogen
T2 sequence (Q05655 whole entry, canonical isoform): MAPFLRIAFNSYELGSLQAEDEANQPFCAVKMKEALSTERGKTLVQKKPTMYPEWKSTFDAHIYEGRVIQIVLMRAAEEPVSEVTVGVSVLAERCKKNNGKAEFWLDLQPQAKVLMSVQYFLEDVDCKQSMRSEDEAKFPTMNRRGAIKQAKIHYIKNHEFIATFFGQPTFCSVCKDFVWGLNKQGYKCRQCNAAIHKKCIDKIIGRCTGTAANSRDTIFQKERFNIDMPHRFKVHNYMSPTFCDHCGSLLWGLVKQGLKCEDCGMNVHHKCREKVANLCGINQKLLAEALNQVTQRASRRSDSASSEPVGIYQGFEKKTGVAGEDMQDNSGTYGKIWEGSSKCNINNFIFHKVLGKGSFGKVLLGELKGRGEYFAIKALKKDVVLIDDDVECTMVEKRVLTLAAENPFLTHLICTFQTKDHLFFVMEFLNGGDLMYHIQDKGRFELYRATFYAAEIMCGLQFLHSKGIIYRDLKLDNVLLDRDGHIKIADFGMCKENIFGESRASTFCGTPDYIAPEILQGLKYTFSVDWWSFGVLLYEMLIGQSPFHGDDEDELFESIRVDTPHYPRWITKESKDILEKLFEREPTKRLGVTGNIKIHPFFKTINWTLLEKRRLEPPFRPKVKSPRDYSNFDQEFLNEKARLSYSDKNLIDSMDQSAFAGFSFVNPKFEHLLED
Experimental: as §1, §2, §3, §4, §5, §6, §7, §8, §9, §10

[3] = recombinant human PKC isoform, competition with 3H-PDBu, parentheses = 95% confidence interval, read-out: PKC Ki (nM) beta-1

T1 sequence (P05771 whole entry): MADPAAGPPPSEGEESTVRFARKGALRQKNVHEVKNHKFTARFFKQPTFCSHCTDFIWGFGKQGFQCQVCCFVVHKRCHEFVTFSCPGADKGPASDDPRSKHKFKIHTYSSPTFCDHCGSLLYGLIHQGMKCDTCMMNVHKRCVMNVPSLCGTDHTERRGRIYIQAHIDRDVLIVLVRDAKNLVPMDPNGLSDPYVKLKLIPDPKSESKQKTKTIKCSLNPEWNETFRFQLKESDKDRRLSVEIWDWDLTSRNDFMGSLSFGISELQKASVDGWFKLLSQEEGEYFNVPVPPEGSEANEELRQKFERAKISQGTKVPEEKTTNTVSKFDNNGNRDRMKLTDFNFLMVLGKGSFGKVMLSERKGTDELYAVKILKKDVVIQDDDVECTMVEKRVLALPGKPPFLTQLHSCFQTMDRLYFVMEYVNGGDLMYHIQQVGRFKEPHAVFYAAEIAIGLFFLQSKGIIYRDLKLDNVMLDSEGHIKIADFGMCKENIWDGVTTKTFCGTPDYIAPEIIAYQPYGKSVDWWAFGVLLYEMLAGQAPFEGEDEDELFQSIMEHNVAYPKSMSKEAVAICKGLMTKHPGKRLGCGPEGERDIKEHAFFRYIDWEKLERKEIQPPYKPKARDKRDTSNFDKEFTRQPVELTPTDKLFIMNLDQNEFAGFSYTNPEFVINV

Row | Compound | Ki [1] | Ki [1, 3] | Ki [2]
1 | CCC/C=C/C=C/C(=O)O[C@H]1/C(=C/C(=O)OC)C[C@H]2CC([C@@H](C)O)OC(=O)C[C@@H](O)C[C@@H]3C[C@H](OC(C)=O)C(C)(C)[C@](O)(C[C@@H]4C/C(=C\C(=O)OC)C[C@H](/C=C/C(C)(C)[C@]1(O)O2)O4)O3 (stereo partly shown) [(E)-enoate 35] | 12 nM | – | –
2 | C=C1C[C@H]2C[C@]3(O)O[C@H](C[C@H](O)CC(=O)OC([C@@H](C)O)C[C@@H]4C/C(=C\C(=O)OC)[C@H](OC(=O)C#CCCCCC)[C@@](O)(O4)C(C)(C)/C=C/[C@@H](C1)O2)C[C@H](OC(C)=O)C3(C)C (stereo partly shown) [alkene 34] | – | 3.9 nM | 0.76 nM
3 | CCC/C=C/C=C/C(=O)O[C@H]1/C(=C/C(=O)OC)C[C@H]2C[C@H]([C@@H](C)O)OC(=O)C[C@H](O)C[C@@H]3C[C@H](OC(C)=O)C(C)(C)[C@](O)(C[C@@H]4C/C(=C/C(=O)OC)C[C@H](/C=C/C(C)(C)[C@]1(O)O2)O4)O3 [bryostatin 1, reference compound] | – | 1.6 nM | –
